For data set [1] the following is noted: earlier work of Gloer; cited from earlier work.
For the next data set, the system named is HSV-1. Format: cell-based, Herpes simplex virus Type I.
The next data set deals with Lewis lung carcinoma. As to the kind of experiment: In vivo antitumor activity, Lewis lung. The arrangement: species or system mice. As to the method:
(§1) Compound 106 was prepared semisynthetically for in vivo antitumor testing in mice.
(§2) ^b Schedule 1-9 days i. p.
^f Lewis lung carcinoma, median tumor volume of control mice 1372

A further data set relates to VSV. Format: cell-based, vesicular stomatitis virus.
In the next data set the test system is P388 murine lymphoma. Kind of data set: In vivo antitumor activity, P388. The arrangement: species or system mice. To be noted: for T/C (treated/control): significant >125%. As to the method: as §1, §2
^d P388 murine lymphoma. Median survival of control mice, 10.0 days.

Another data set has as its system Visna virus (VIV). Format: cell-based.
The subject of data set [2] is L1210 murine leukemia cells. The conditions noted are these: Table 9.
A further data set relates to B16 melanoma. As to the kind of experiment: In vivo antitumor activity, B16. The arrangement: species or system mice. The conditions noted are these: for T/C (treated/control): significant >125%. As to the method:
as §1, §2
^e B16 melanoma. Median survival of control mice, 17.0 days.

For data set [3] the following is noted: earlier work, Rinehart et al. 1988; cited from earlier work.
For data set [4], the system named is DNA synthesis in Nb2 node lymphoma cells. Kind of data set: Inhibition of ongoing DNA synthesis in prolactin-stimulated Nb2 cells. To be noted: Nb2 cells stimulated with prolactin for 24 h. Format: cell-based, rat. Here is the method:
(§3) Also inhibitions of protein and DNA synthesis of several compounds were measured using Nb2 node lymphoma cells which were stimulated by a treatment of cells with prolactin. (ibid.)
(§4) ^a Nb2 cells were stimulated with prolactin for 24 h, then exposed to
(§5) ^b 50% Inhibitory concentration, calculated with linear regression

A further data set relates to L1210. Kind of data set: L1210 cytotoxicity, inhibition at fixed doses (Table 10). It counts as cell-based, murine. The conditions noted are these: tested 4/18/1991.
The test system of data set [5] is Protein synthesis in Nb2 node lymphoma cells. Kind of data set: Inhibition of ongoing protein synthesis in prolactin-stimulated Nb2 cells. The conditions noted are these: Nb2 cells stimulated with prolactin for 24 h. It counts as cell-based, rat. Here is the method:
as §3, §4, §5

The subject of data set [6] is Nb2 cells, rat T-cell node lymphoma. Kind of data set: Competitive binding with [3H]didemnin B to Nb2 cells. The conditions noted are these: 3 h at 37° C. As to the method: The immunosuppressive assay was performed by measuring competitive binding of tested compounds with [^3 H]didemnin B to Nb2 cells, rat T-cell node lymphoma. See, Russell, D. H., et al., J. Immunology, 1987, 138, 276-284.
^a Competing didemnins incubated with approximately 25 ng of [^3

In brackets after ≈: the same amount, converted by molar mass. Entries after “also recorded” stand apart in the source; their conditions may differ. Where two headings read alike, the source gives them in different places. Numbered stars: 1 amine (or outer) side, 2 acyl side, 3 side chain; on linkers, the order of the positions; unused ones are H or OH. Bridge positions count the residues as written; N and C are the ends. Square brackets hold non-standard residues; d marks the D form. Peptide text beside a SMILES is read from it. * marks the point of attachment. X14 = CC[C@H](C)[C@@H](N[*:1])[C@@H](O)CC(=O)O[C@@H](C(C)C)[C@@H](O)[C@H](C)C(=O)[*:2]; X1 = CC[C@H](C)[C@@H](N[*:1])[C@@H](O)CC(=O)O[C@H](C(=O)[C@H](C)C(=O)[*:2])C(C)C; NMeY = CN[C@@H](Cc1ccc(O)cc1)C(=O)O; dNMeL = CN[C@H](CC(C)C)C(=O)O; Pyruvoyl = CC(=O)C(=O)*

For the molecule `CC[C@H](C)[C@H]1NC(=O)[C@@H](NC(=O)[C@@H](CC(C)C)NC)[C@@H](C)OC(=O)[C@H](Cc2ccc(OC)cc2)N(C)C(=O)[C@@H]2CCCN2C(=O)[C@H](CC(C)C)NC(=O)[C@@H](C)[C@H](O)[C@H](C(C)C)OC(=O)C[C@@H]1O` [[Dihydro(2S,3S,4S)Hip^2]didemnin A, reference compound] (H-[dNMeL]T[X14]LP[NMeY](Me); ester 2-C), the “cytotoxicity compared with Compound 1” value in data set [1] was “weaker cytotoxicity than Compound 1”.
For `CC[C@H](C)[C@H]1NC(=O)[C@@H](NC(=O)[C@@H](CC(C)C)N(C)C(=O)[C@@H]2CCCN2C(=O)C(C)=O)[C@@H](C)OC(=O)[C@H](Cc2ccc(OC)cc2)N(C)C(=O)[C@@H]2CCCN2C(=O)[C@H](CC(C)C)NC(=O)[C@@H](C)C(=O)[C@H](C(C)C)OC(=O)C[C@@H]1O` [[Pyruvyl^9]Didemnin B (106), Dehydrodidemnin B] (Pyruvoyl-P[dNMeL]T[X1]LP[NMeY](Me); ester 3-C), the HSV-1 entry with HSV-1 is reported as “+ +”. For the same molecule, in the data set on HSV-1, the “antiviral activity against HSV-1” value was “several times more active than DB; also recorded: high order”. Also, the “Median Tumor Vol.” value is listed as 473 mm^3 with Lewis lung carcinoma (40 μg/kg/day), 163 mm^3 with Lewis lung carcinoma (80 μg/kg/day) and 0 mm^3 in the data set on Lewis lung carcinoma (160 μg/kg/day). Also, the “N. P. (Day 14), number of nonpalpable tumors” value stood at 0 with Lewis lung carcinoma (40 μg/kg/day), 2 in the data set with Lewis lung carcinoma (80 μg/kg/day) and 5 in the data set on Lewis lung carcinoma (160 μg/kg/day). Also, the “Body Wt. Chenge.” value in the data set with Lewis lung carcinoma (40 μg/kg/day i. p. days 1-9) is recorded as -2.6 g; with Lewis lung carcinoma (160 μg/kg/day i. p. days 1-9) it was -3.7 g. Further, the “antiviral activity against VSV” value with VSV is reported as “high order”. Also, the “Alive (day 23)” value is given as 0 in the data set with P388 murine lymphoma (P388, 80 μg/kg/day); 0 in the data set with P388 murine lymphoma (P388, 160 μg/kg/day); 0 with P388 murine lymphoma (P388, 320 μg/kg/day). For the same molecule, the “Median Survival” value in the data set with P388 murine lymphoma (P388, 80 μg/kg/day) came to 19.5 days; with P388 murine lymphoma (P388, 160 μg/kg/day), 21.0 days; in the data set on P388 murine lymphoma (P388, 320 μg/kg/day), 6.0 days; with B16 melanoma (B16, 40 μg/kg/day), 30 days; in the data set with B16 melanoma (B16, 80 μg/kg/day), 32 days; in the data set on B16 melanoma (B16, 160 μg/kg/day), 37 days. The Body wt. chenge. in the data set on P388 murine lymphoma (P388, 80 μg/kg/day i. p. days 1-9) is on record as -1.4 g; in the data set on P388 murine lymphoma (P388, 160 μg/kg/day i. p. days 1-9), -3.2 g; in the data set with P388 murine lymphoma (P388, 320 μg/kg/day i. p. days 1-9) it was -3.3 g; with B16 melanoma (B16, 40 μg/kg/day i. p. days 1-9) it was 0.1 g; in the data set on B16 melanoma (B16, 80 μg/kg/day i. p. days 1-9), -0.5 g; in the data set on B16 melanoma (B16, 160 μg/kg/day i. p. days 1-9), -1.3 g. In addition, the “T/C (treated/control)” value in the data set with P388 murine lymphoma (P388, 80 μg/kg/day) was 195%; in the data set on P388 murine lymphoma (P388, 160 μg/kg/day) it was 210%; with P388 murine lymphoma (P388, 320 μg/kg/day), 60%; in the data set on B16 melanoma (B16, 40 μg/kg/day), 178%; in the data set on B16 melanoma (B16, 80 μg/kg/day), 188%; with B16 melanoma (B16, 160 μg/kg/day), 218%. Also, the “VIV Protection” value in the data set with Visna virus (VIV) is reported as -92. In addition, the “activity against VIV” value in the data set on Visna virus (VIV) is “completely inactive”. For the same molecule, the IC50 (as a rule, the concentration that inhibits the measured activity by half) in the data set on L1210 cells is 0.2 ng/mL (≈ 0.18 nM). Besides, the “cytotoxic activity against L1210” value in the data set with L1210 cells is recorded as “several times more active than DB”. In [2], the “Cytotoxicity L1210 IC50” value is on record as 0.2 ng/mL. For the same molecule, the “Alive (day 24)” value worked out at 0 with B16 melanoma (B16, 40 μg/kg/day); 0 in the data set on B16 melanoma (B16, 80 μg/kg/day); 0 in the data set on B16 melanoma (B16, 160 μg/kg/day).
Turning to `CC[C@H](C)[C@@H]1NC(=O)[C@@H](NC(=O)[C@H](CC(C)C)N(C)C(C)=O)[C@H](C)OC(=O)[C@H](Cc2ccc(OC)cc2)N(C)C(=O)[C@@H]2CCCN2C(=O)[C@H](CC(C)C)NC(=O)[C@@H](C)C(=O)[C@H](C(C)C)OC(=O)C[C@@H]1OC(C)=O` [Diacetyldidemnin A (32), N,O-Diacetyldidemnin A], in [3], the “antiviral activity (in vitro)” value is recorded as “improvement of the antiviral activity”. Moreover, the “cytotoxicity compared with Compound 1” value in [1] was “weaker cytotoxicity than Compound 1”. In the data set on Visna virus (VIV) (Table 9, 0.1 μg/mL), the “VIV Protection” value is reported as less than 0%. For the same molecule, the “Cytotoxicity L1210 IC50” value in data set [2] was found to be 15 ng/mL.
For the molecule `CC[C@H](C)[C@@H](NC(=O)[C@@H](NC(=O)[C@@H](CC(C)C)NC)[C@@H](C)O)[C@@H](O)CC(=O)O[C@H](C(=O)[C@H](C)C(=O)N[C@@H](CC(C)C)C(=O)N1CCC[C@H]1C(=O)N(C)[C@@H](Cc1ccc(OC)cc1)C(=O)O)C(C)C` [Acyclodidemnin A (16), Acyclodidemnin A] (H-[dNMeL]T[X1]LP[NMeY](Me)-OH), the “IC50 DNA” value in [4] was “inactive (1 g)”. Besides, the “Inhibition (%)” value with L1210 (dose 25 ng/mL) was found to be 25%; in the data set with L1210 (dose 250 ng/mL) it was 99%. In addition, the “IC50 Protein” value in [5] was “inactive (1 g)”. In addition, the “Cytotoxicity L1210 IC50” value in [2] is listed as 30 ng/mL. In the data set on CV-1 monkey kidney cells, this molecule gave a CV-1 of 0. The “Inhibition of [3H]didemnin B binding (%)” value in data set [6] (0.001 μg/mL) came out at 0%; in data set [6] (0.01 μg/mL), 7%; in [6] (0.1 μg/mL), 6%; in data set [6] (1 μg/mL) it was 8%.

Source of the values: patent publication US5294603A, “Pharmaceutical compositions containing didemnins” (The Board of Trustees of The University of Illinois, priority 1992, dated 1994).
